Experiments:
[1] = biological target: T1, TCF4/beta-catenin (Homo sapiens, UniProt P35222+Q9NQB0); assay: Inhibition of human […]/Tcf4 interaction after 1 hr by fluorescence polarization assay; assay type: protein-complex assay
[2] = organism: Homo sapiens; assay: Selectivity ratio of Ki for human […]/E-cadherin interaction to Ki for human […]/Tcf4 interaction by fluorescence polarization assay
[3] = biological target: Catenin beta-1/Adenomatous polyposis coli protein (Homo sapiens); assay: Inhibition of human beta-catenin/APC-R3 interaction after 1 hr by fluorescence polarization assay
[4] = organism: Homo sapiens; assay: Selectivity ratio of Ki for human […]/E-cadherin interaction to Ki for human […]/Tcf4 interaction by alphascreen assay
[5] = biological target: Catenin beta-1/Cadherin-1 (Homo sapiens); assay: Inhibition of human beta-catenin/E-cadherin interaction after 1 hr by fluorescence polarization assay
[6] = biological target: Catenin beta-1/Cadherin-1 (Homo sapiens); assay: Inhibition of human beta-catenin/E-cadherin interaction after 1 hr by alphascreen assay
[7] = biological target: Catenin beta-1/Adenomatous polyposis coli protein (Homo sapiens); assay: Inhibition of human beta-catenin/APC-R3 interaction after 1 hr by alphascreen assay
[8] = biological target: T1, TCF4/beta-catenin; assay: Inhibition of human beta-catenin/Tcf4 interaction after 1 hr by alphascreen assay
[9] = organism: Homo sapiens; assay: Selectivity ratio of Ki for human […]/APC-R3 interaction to Ki for human […]/Tcf4 interaction by alphascreen assay
[10] = organism: Homo sapiens; assay: Selectivity ratio of Ki for human […]/APC-R3 interaction to Ki for human […]/Tcf4 interaction by fluorescence polarization assay

T1 sequence (P35222 whole entry): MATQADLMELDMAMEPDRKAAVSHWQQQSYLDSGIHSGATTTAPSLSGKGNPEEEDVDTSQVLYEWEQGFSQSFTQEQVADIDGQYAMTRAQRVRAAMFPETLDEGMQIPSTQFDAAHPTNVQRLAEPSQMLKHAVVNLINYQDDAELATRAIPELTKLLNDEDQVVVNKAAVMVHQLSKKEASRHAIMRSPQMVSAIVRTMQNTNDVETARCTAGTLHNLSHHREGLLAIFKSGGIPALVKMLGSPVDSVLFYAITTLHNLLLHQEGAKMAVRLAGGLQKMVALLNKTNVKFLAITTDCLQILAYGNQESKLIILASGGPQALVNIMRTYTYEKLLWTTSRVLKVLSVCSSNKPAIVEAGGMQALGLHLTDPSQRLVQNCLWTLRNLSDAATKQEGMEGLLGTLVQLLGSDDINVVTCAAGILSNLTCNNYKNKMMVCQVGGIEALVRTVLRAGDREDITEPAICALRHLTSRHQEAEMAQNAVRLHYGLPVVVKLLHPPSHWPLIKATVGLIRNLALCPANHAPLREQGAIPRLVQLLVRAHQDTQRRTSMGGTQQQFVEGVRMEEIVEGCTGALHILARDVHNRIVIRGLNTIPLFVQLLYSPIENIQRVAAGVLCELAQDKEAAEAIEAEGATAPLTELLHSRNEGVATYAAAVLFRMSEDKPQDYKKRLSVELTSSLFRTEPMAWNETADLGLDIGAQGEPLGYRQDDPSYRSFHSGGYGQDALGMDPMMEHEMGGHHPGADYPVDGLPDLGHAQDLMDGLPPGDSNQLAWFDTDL
T1 sequence (Q9NQB0 whole entry): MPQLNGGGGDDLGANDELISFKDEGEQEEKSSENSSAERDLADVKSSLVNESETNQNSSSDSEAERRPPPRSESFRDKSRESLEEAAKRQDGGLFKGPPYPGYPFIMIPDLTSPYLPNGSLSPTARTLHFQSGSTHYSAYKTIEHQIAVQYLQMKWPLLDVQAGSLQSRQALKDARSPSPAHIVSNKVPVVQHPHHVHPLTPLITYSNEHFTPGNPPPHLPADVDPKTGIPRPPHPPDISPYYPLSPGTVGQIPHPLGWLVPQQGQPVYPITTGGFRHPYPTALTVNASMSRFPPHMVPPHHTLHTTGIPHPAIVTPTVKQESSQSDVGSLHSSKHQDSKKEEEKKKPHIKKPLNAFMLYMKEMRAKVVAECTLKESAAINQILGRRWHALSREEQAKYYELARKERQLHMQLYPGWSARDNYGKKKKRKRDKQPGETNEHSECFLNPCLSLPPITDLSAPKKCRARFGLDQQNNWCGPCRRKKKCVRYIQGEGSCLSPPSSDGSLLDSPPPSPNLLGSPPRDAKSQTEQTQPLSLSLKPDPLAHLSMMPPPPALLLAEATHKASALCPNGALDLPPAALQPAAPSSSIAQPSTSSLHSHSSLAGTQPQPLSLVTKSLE

Compound	Ki [1] [µM]	Ratio Ki [2]	Ki [3] [µM]	Ratio Ki [4]	Ki [5] [µM]	Ki [6] [µM]	Ki [7] [µM]	Ki [8] [µM]	Ratio Ki [9]	Ratio Ki [10]
COc1c(C[C@@H](C)OC(=O)Oc2ccc(O)cc2)c2c3c(C[C@@H](C)OC(=O)c4ccccc4)c(OC)c(=O)c4c(O)cc(OC)c(c5c(OC)cc(O)c(c1=O)c52)c43 [CALPHOSTIN C]	18									
C=CCN1C(=O)/C(=N\NC(=O)C(=O)Nc2cccc(C(=O)O)c2)c2ccccc21	16	16.3	400	3.3	260	68	220	21	10.5	25
COc1cccc(/C=C2/SC(=S)N(CCC(=O)O)C2=O)c1OC				4.8		140	110	29	3.8	

Source: ChEMBL document CHEMBL2321680, “High-Throughput Selectivity Assays for Small-Molecule Inhibitors of β-Catenin/T-Cell Factor Protein-Protein Interactions” (ACS Med Chem Lett, 2013)
